Reference: patent US20180099931A1 (AbbVie S.à.r.l., priority 2016, published 2018)
Read-outs that look alike come from different tables or passages of the source.

Target: T1, F508delCFTR (Homo sapiens, UniProt P13569, DEL508-508)
T1 construct: expressed in transfected cells; host or cells: CFBE41o- human lung-derived epithelial cells (CFBE4lo-F508delCFTR-HRP), doxycycline-inducible
Assay: Cell Surface Expression-Horse Radish Peroxidase (CSE-HRP) Assay;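 as to Maximum % activity (with co-corrector): co-corrector and positive control are both the same reference corrector at 2 µM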;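 as to Maximum % activity (without co-corrector): percent of the 2 µM on-plate positive control corrector response above DMSO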
Format: cell-based
Conditions: for Emax / Maximum % activity (with co-corrector): maximum at any tested concentration, normalized to on-plate positive control; for Emax: read-out: Maximum % activity (without co-corrector)

[1] = test compound without co-corrector
[2] = test compound without co-corrector, read-out: EC50 (without co-corrector)
[3] = with co-corrector (2 μM of 3-[(2R,4R)-4-({[1-(2,2-difluoro-1,3-benzodioxol-5-yl)cyclopropyl]carbonyl}amino)-7-methoxy-3,4-dihydro-2H-chromen-2-yl]benzoic acid)
[4] = with co-corrector (2 μM of 3-[(2R,4R)-4-({[1-(2,2-difluoro-1,3-benzodioxol-5-yl)cyclopropyl]carbonyl}amino)-7-methoxy-3,4-dihydro-2H-chromen-2-yl]benzoic acid), read-out: EC50 (with co-corrector)

T1 sequence (P13569 with tags, fused parts or gaps DEL508-508): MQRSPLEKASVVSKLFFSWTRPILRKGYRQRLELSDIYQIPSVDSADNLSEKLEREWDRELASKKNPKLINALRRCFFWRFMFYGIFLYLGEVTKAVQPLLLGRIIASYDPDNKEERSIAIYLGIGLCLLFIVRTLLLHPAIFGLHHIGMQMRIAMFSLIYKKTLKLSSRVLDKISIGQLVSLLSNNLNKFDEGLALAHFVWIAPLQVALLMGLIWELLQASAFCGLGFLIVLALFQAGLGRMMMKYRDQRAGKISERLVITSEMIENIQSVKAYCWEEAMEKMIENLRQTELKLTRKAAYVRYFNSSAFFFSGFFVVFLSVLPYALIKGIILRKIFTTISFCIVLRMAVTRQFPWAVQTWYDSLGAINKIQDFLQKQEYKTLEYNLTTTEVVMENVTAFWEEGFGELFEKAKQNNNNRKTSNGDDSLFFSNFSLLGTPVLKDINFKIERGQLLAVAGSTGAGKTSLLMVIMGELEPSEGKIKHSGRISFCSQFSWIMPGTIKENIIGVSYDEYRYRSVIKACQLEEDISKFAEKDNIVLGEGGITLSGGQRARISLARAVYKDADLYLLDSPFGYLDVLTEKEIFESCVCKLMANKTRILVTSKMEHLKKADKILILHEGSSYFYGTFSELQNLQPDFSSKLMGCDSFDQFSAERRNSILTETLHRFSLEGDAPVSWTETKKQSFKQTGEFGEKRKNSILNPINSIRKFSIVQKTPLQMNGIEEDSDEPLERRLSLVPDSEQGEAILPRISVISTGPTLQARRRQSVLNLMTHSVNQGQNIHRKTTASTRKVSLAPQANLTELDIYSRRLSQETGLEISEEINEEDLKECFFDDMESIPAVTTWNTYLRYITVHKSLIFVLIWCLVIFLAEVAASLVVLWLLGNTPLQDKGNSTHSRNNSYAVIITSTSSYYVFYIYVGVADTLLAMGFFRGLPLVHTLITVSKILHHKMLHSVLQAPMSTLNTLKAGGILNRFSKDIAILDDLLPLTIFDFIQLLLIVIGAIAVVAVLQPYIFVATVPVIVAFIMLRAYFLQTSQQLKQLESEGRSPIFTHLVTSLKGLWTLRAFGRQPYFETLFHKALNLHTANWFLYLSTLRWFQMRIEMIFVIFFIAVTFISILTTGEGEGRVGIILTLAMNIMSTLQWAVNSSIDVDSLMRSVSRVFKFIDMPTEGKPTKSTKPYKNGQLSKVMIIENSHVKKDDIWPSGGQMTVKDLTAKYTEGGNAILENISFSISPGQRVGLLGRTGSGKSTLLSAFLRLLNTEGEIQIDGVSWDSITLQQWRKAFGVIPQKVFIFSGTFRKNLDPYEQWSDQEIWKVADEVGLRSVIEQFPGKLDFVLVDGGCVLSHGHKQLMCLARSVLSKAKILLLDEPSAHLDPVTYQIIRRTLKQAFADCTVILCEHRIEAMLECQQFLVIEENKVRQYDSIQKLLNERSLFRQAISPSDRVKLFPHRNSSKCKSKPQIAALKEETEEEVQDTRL

Compound	Emax [1] [%]	EC50 [2] [nM]	Maximum % activity (with co-corrector) [3]	EC50 [4] [nM]
COc1ccc(C(C)(C)C)cc1CN[C@H]1[C@H](C(C)(C)C)[C@@H](C(=O)O)N(C(=O)C2CC=CC2)[C@H]1c1ccccc1 [II-321]	> 200	1000 to 10000	+++ (≥350)	< 1000
COc1ccc(C(C)(C)C)cc1CN[C@H]1[C@H](C(C)(C)C)[C@@H](C(=O)O)N(C(=O)[C@H]2CCCO2)[C@H]1c1ccccc1 [II-322]	100 to 200	1000 to 10000	+++ (≥350)	1000 to 10000
COc1ccc(C(C)(C)C)cc1CN[C@H]1[C@H](C(C)(C)C)[C@@H](C(=O)O)N(C(=O)C(C)Oc2cccc(C)c2C)[C@H]1c1ccccc1 (some centres unmarked) [II-323]	100 to 200	1000 to 10000	+++ (≥350)	< 1000
COc1ccc(C(C)(C)C)cc1CN[C@H]1[C@H](C(C)(C)C)[C@@H](C(=O)O)N(C(=O)C(C)Oc2ccccc2F)[C@H]1c1ccccc1 (some centres unmarked) [II-324]	> 200	1000 to 10000	+++ (≥350)	< 1000
COc1ccc(C(C)(C)C)cc1CN[C@H]1[C@H](C(C)(C)C)[C@@H](C(=O)O)N(C(=O)C(C)Sc2ccccc2)[C@H]1c1ccccc1 (some centres unmarked) [II-325]	> 200	< 1000	+++ (≥350)	< 1000
COc1ccc(C(C)(C)C)cc1CN[C@H]1[C@H](C(C)(C)C)[C@@H](C(=O)O)N(C(=O)[C@@H](C)c2ccccc2)[C@H]1c1ccccc1 [II-326]	> 200	1000 to 10000	+++ (≥350)	< 1000
COc1ccc(C(C)(C)C)cc1CN[C@H]1[C@H](C(C)(C)C)[C@@H](C(=O)O)N(C(=O)C2CC2(F)F)[C@H]1c1ccccc1 (some centres unmarked) [II-327]	100 to 200	1000 to 10000	+++ (≥350)	1000 to 10000
COc1ccc(C(C)(C)C)cc1CN[C@H]1[C@H](C(C)(C)C)[C@@H](C(=O)O)N(C(=O)C2CC(C)(C)C2)[C@H]1c1ccccc1 [II-328]	> 200	1000 to 10000	+++ (≥350)	1000 to 10000
CCC(CC)C(=O)N1[C@H](C(=O)O)[C@@H](C(C)(C)C)[C@H](NCc2cc(C(C)(C)C)ccc2OC)[C@@H]1c1ccccc1 [II-329]	> 200	1000 to 10000	+++ (≥350)	1000 to 10000
COc1ccc(C(C)(C)C)cc1CN[C@H]1[C@H](C(C)(C)C)[C@@H](C(=O)O)N(C(=O)C(C)Oc2cccc(Cl)c2)[C@H]1c1ccccc1 (some centres unmarked) [II-330]	> 200	1000 to 10000	+++ (≥350)	< 1000
COc1ccc(C(C)(C)C)cc1CN[C@H]1[C@H](C(C)(C)C)[C@@H](C(=O)O)N(C(=O)C2CC2c2ccncc2)[C@H]1c1ccccc1 (some centres unmarked) [II-331]	100 to 200	1000 to 10000	+++ (≥350)	1000 to 10000
COc1ccc(C(C)(C)C)cc1CN[C@H]1[C@H](C(C)(C)C)[C@@H](C(=O)O)N(C(=O)C2CCCC2)[C@H]1c1ccccc1 [II-332]	> 200	1000 to 10000	+++ (≥350)	< 1000
COc1ccc(C(C)(C)C)cc1CN[C@H]1[C@H](C(C)(C)C)[C@@H](C(=O)O)N(C(=O)C2CC2)[C@H]1c1ccccc1 [II-333]	> 200	1000 to 10000	+++ (≥350)	1000 to 10000
COc1ccc(C(C)(C)C)cc1CN[C@H]1[C@H](C(C)(C)C)[C@@H](C(=O)O)N(C(=O)C2CCC(F)(F)C2)[C@H]1c1ccccc1 (some centres unmarked) [II-334]	> 200	1000 to 10000	+++ (≥350)	1000 to 10000
COc1ccc(C(C)(C)C)cc1CN[C@H]1[C@H](C(C)(C)C)[C@@H](C(=O)O)N(C(=O)C2CC(F)C2)[C@H]1c1ccccc1 (some centres unmarked) [II-335]	> 200	1000 to 10000	+++ (≥350)	1000 to 10000
COc1ccc(C(C)(C)C)cc1CN[C@H]1[C@H](C(C)(C)C)[C@@H](C(=O)O)N(C(=O)C2CC(F)(F)C2)[C@H]1c1ccccc1 [II-336]	100 to 200	1000 to 10000	+++ (≥350)	1000 to 10000
COc1ccc(C(C)(C)C)cc1CN[C@H]1[C@H](C(C)(C)C)[C@@H](C(=O)O)N(C(=O)C2CCc3ccccc32)[C@H]1c1ccccc1 (some centres unmarked) [II-337]	> 200	< 1000	+++ (≥350)	< 1000
COc1ccc(C2CCOCC2)cc1CN[C@H]1[C@H](C(C)(C)C)[C@@H](C(=O)O)N(C(=O)C2CCCCC2)[C@H]1c1ccccc1 [II-340]	100 to 200	1000 to 10000	+++ (≥350)	1000 to 10000

Compound	Emax [1] [%]	EC50 [2] [nM]	Maximum % activity (with co-corrector) [3]	EC50 [4] [nM]
COc1ncc(-c2ccccc2C)cc1CN[C@H]1[C@H](C(C)(C)C)[C@@H](C(=O)O)N(C(=O)C2CCCCC2)[C@H]1c1ccccc1 [II-342]	> 200	< 1000	+++ (≥350)	< 1000
COc1ncc(-c2ccc(F)cc2C)cc1CN[C@H]1[C@H](C(C)(C)C)[C@@H](C(=O)O)N(C(=O)C2CCCCC2)[C@H]1c1ccccc1 [II-343]	100 to 200	< 1000	+++ (≥350)	< 1000
COc1ncc(-c2ccc(F)cc2F)cc1CN[C@H]1[C@H](C(C)(C)C)[C@@H](C(=O)O)N(C(=O)C2CCCCC2)[C@H]1c1ccccc1 [II-344]	100 to 200	1000 to 10000	+++ (≥350)	< 1000
COc1ncc(-c2cccnc2)cc1CN[C@H]1[C@H](C(C)(C)C)[C@@H](C(=O)O)N(C(=O)C2CCCCC2)[C@H]1c1ccccc1 [II-345]	< 100	1000 to 10000	+++ (≥350)	1000 to 10000
COc1ncc(-c2cccc(F)c2F)cc1CN[C@H]1[C@H](C(C)(C)C)[C@@H](C(=O)O)N(C(=O)C2CCCCC2)[C@H]1c1ccccc1 [II-346]	> 200	1000 to 10000	+++ (≥350)	1000 to 10000
COc1ncc(-c2ccc(C)cc2)cc1CN[C@H]1[C@H](C(C)(C)C)[C@@H](C(=O)O)N(C(=O)C2CCCCC2)[C@H]1c1ccccc1 [II-347]	100 to 200	< 1000	+++ (≥350)	< 1000
COc1ncc(-c2cccnc2C)cc1CN[C@H]1[C@H](C(C)(C)C)[C@@H](C(=O)O)N(C(=O)C2CCCCC2)[C@H]1c1ccccc1 [II-348]	< 100	1000 to 10000	+++ (≥350)	1000 to 10000
COc1ncc(C2=CCOCC2)cc1CN[C@H]1[C@H](C(C)(C)C)[C@@H](C(=O)O)N(C(=O)C2CCCCC2)[C@H]1c1ccccc1 [II-349]	< 100	1000 to 10000	+++ (≥350)	1000 to 10000
COc1ncc(C2=CCOC2)cc1CN[C@H]1[C@H](C(C)(C)C)[C@@H](C(=O)O)N(C(=O)C2CCCCC2)[C@H]1c1ccccc1 [II-350]	100 to 200	1000 to 10000	+++ (≥350)	1000 to 10000
COc1ncc(C(C)(C)C)cc1CN[C@H]1[C@H](C(C)(C)C)[C@@H](C(=O)O)N(C(=O)C2CCCCC2)[C@H]1c1ccccc1F [II-351]	100 to 200	< 1000	+++ (≥350)	< 1000
COc1ccc(C2CC2)cc1CN[C@H]1[C@H](C(C)(C)C)[C@@H](C(=O)O)N(C(=O)C2CCCCC2)[C@H]1c1ccccc1 [II-352]	> 200	1000 to 10000	+++ (≥350)	< 1000
COc1ccc(C2(C(F)(F)F)CC2)cc1CN[C@H]1[C@H](C(C)(C)C)[C@@H](C(=O)O)N(C(=O)C2CCCCC2)[C@H]1c1ccccc1F [II-353]	> 200	1000 to 10000	+++ (≥350)	< 1000
COc1ccc(C(C)(C)C)cc1CN[C@H]1[C@H](C(C)(C)C)[C@@H](C(=O)O)N(C(=O)c2cnn(-c3ccc(F)cc3)c2C)[C@H]1c1ccccc1 [II-354]	> 200	< 1000	+++ (≥350)	< 1000
COc1ccc(C(C)(C)C)cc1CN[C@H]1[C@H](C(C)(C)C)[C@@H](C(=O)O)N(C(=O)c2cnn(C(C)(C)C)c2C#N)[C@H]1c1ccccc1 [II-355]	100 to 200	1000 to 10000	+++ (≥350)	< 1000
COc1ccc(C(C)(C)C)cc1CN[C@H]1[C@H](C(C)(C)C)[C@@H](C(=O)O)N(C(=O)c2cnn(-c3ccc(F)cc3F)c2C)[C@H]1c1ccccc1 [II-356]	> 200	1000 to 10000	+++ (≥350)	< 1000
COc1ccc(-n2ncc(C(=O)N3[C@H](C(=O)O)[C@@H](C(C)(C)C)[C@H](NCc4cc(C(C)(C)C)ccc4OC)[C@@H]3c3ccccc3)c2C)cc1 [II-357]	> 200	1000 to 10000	+++ (≥350)	< 1000
COc1ccc(C(C)(C)C)cc1CN[C@H]1[C@H](C(C)(C)C)[C@@H](C(=O)O)N(C(=O)c2cnn(C)c2-c2ccccc2)[C@H]1c1ccccc1 [II-358]	< 100	1000 to 10000	+++ (≥350)	1000 to 10000
